Experimental data reported in patent publication US6133275A, “3-phenylpyrrolidine alpha-1 adrenergic compounds” (Abbott Laboratories, priority 1998, dated 2000).
Where a name gives a salt, the structure may show the parent alone.

What was measured:
[1] = system: BPH patients; conditions: cited from earlier work; for improvements in urinary flow rates and subjective symptom scores: longer term studies; for Clinical efficacy in BPH: BPH patients
[2] = biological target: T1, α1a (Rat) (Rattus norvegicus, UniProt P43140); test: Radioligand binding, displacement of [3H]-prazosin from cloned α1a (rat) expressed in LTK cells; conditions: [3H]-prazosin 0.2 nM; cloned rat α1a in LTK cell membranes; 25° C., 50 minutes
T1 sequence (P43140 1-466): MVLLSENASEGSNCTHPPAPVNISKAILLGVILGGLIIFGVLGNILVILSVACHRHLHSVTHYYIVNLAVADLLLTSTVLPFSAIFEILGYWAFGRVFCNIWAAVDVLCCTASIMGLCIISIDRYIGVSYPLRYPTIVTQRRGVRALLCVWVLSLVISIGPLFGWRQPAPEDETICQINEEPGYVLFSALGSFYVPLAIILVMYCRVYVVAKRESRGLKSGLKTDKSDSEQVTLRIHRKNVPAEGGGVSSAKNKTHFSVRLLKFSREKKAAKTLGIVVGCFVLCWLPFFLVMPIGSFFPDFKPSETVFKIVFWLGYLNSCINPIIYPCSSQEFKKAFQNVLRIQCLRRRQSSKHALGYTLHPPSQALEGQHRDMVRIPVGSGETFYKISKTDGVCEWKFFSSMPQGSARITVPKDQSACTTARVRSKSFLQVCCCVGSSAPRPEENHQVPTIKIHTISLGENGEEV

[3] = biological target: T2, α1b (Hamster) (Mesocricetus auratus, UniProt P18841); test: Radioligand binding, displacement of [3H]-prazosin from cloned α1b (hamster) expressed in LTK cells; conditions: [3H]-prazosin 0.2 nM; cloned hamster α1b in LTK cell membranes; 25° C., 50 minutes
T2 sequence (P18841 1-515): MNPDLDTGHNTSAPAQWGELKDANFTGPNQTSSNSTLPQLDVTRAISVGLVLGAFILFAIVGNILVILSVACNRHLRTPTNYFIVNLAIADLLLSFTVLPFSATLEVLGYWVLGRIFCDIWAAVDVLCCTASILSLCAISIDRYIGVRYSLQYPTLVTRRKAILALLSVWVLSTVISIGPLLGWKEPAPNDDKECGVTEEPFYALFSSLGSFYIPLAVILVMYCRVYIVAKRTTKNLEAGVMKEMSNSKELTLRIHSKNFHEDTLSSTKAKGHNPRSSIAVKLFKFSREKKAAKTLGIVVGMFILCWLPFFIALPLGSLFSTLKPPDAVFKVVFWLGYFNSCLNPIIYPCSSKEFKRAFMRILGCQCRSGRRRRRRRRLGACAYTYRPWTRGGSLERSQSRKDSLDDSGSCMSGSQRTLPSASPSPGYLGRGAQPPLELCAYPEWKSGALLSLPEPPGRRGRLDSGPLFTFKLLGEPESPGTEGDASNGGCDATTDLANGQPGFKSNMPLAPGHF

[4] = biological target: T3, α1d (rat) (Rattus norvegicus, UniProt P23944); test: Radioligand binding, displacement of [3H]-prazosin from cloned α1d (rat) expressed in LTK cells; conditions: [3H]-prazosin 0.2 nM; cloned rat α1d in LTK cell membranes; 25° C., 50 minutes
T3 sequence (P23944 1-561): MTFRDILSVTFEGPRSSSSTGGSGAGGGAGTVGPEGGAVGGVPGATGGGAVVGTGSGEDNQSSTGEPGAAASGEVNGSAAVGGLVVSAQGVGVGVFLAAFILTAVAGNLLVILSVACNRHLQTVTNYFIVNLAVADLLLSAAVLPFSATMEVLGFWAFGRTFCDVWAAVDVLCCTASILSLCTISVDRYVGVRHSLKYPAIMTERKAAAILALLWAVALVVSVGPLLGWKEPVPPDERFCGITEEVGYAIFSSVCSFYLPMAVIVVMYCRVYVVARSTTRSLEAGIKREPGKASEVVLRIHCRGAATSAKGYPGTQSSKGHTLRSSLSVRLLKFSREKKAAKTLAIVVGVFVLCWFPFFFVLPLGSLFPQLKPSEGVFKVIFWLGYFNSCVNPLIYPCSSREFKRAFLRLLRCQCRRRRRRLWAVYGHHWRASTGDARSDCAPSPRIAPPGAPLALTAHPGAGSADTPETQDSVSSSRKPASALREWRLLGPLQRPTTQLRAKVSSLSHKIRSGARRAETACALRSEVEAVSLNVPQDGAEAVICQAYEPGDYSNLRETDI

[5] = biological target: T4, α1a (Bovine) (Bos taurus, UniProt P18130); test: Radioligand binding, displacement of [3H]-prazosin from cloned α1a (bovine) expressed in LTK cells; conditions: [3H]-prazosin 0.2 nM; cloned bovine α1a in LTK cell membranes; 25° C., 50 minutes
T4 sequence (P18130 1-466): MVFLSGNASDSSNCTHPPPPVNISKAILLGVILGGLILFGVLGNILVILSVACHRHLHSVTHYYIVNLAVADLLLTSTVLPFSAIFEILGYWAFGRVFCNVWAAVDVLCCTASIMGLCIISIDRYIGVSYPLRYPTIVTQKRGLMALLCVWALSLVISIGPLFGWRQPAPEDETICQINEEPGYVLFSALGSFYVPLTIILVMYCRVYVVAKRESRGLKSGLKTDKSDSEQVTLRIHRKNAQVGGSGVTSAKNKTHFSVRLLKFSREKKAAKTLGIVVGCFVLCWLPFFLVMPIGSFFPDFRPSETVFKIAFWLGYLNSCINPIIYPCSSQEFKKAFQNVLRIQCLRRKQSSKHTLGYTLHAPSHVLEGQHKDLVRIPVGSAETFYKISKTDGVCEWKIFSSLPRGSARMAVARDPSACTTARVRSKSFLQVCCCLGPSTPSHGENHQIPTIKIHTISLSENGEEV

Row | SMILES | improvements in urinary flow rates and subjective symptom scores [1] | Clinical efficacy in BPH [1] | Ki [2] | Ki [3] | Ki [4] | Ki [5]
1 | COc1cc2nc(N3CCN(C(=O)c4ccco4)CC3)nc(N)c2cc1OC [prazosin] | significant improvements in urinary flow rates and subjective symptom scores | – | – | – | – | –
2 | COc1cc2nc(N3CCN(C(=O)C4CCCO4)CC3)nc(N)c2cc1OC (stereo not drawn) [terazosin] | significant improvements in urinary flow rates and subjective symptom scores | Clinical efficacy of α1 antagonists in BPH has been demonstrated | – | – | – | –
3 | COc1ccccc1[C@H]1CCN(CCCCn2c(=O)[nH]c3c(sc4ncccc43)c2=O)C1 [Example 8, (R)-3-[4-[3-(2-Methoxyphenyl)-1-pyrrolidinyl]butyl]pyrido[3',2':4,5]thieno[3,2-d]pyrimidine-2,4(1H,3H)-dione, Dihydrochloride] | – | – | 0.12 nM | 1.76 nM | 0.09 nM | 0.06 nM
4 | COc1cnc2sc3c(=O)n(CCCCN4CC[C@H](c5ccccc5OC)C4)c(=O)[nH]c3c2n1 [Example 15, (R)-8-Methoxy-3-[4-[3-(2-methoxyphenyl)-1-pyrrolidinyl]butyl]pyrazino-[2',3':4,5]thieno[3,2-d]pyrimidine-2,4(1H,3H)-dione, Dihydrochloride] | – | – | 0.26 nM | 2.37 nM | 0.15 nM | 0.06 nM
5 | COc1ccccc1[C@@H]1CCN(CCn2c(=O)[nH]c3c(sc4ccccc43)c2=O)C1 [Example 25, (S)-3-[2-[3-(2-methoxyphenyl)-1-pyrrolidinyl]ethyl]-[1]benzothieno[3,2-d]pyrimidine-2,4(1H,3H)-dione Monohydrochloride] | – | – | 9.33 nM | 5.61 nM | 3.86 nM | 1.67 nM
6 | COc1ccccc1[C@H]1CCN(CCCCn2c(=O)[nH]c3c(sc4cccnc43)c2=O)C1 [Example 6, (R)-3-[4-[3-(2-Methoxyphenyl)-1-pyrrolidinyl]butyl]pyrido[2',3':4,5]thieno[3,2-d]pyrimidine-2,4(1H,3H)-dione Dihydrochloride] | – | – | 0.12 nM | 1.77 nM | 0.22 nM | 0.05 nM
7 | COc1cccc([C@H]2CCN(CCn3c(=O)[nH]c4c(sc5ccccc54)c3=O)C2)c1 [Example 3, (R)-3-[2-[3-(3-Methoxyphenyl)-1-pyrrolidinyl]ethyl]-[1]benzothieno[3,2-d]pyrimidine-2,4(1H,3H)-dione Monohydrochloride] | – | – | 34 nM | 59.7 nM | 20 nM | 5.95 nM
8 | COc1ccccc1[C@H]1CCN(CCCCCn2c(=O)[nH]c3c(sc4cccnc43)c2=O)C1 [Example 7, (R)-3-[5-[3-(2-Methoxyphenyl)-1-pyrrolidinyl]pentyl]pyrido[2',3':4,5]thieno[3,2-d]pyrimidine-2,4(1H,3H)-dione, Dihydrochloride] | – | – | 2.11 nM | 4.86 nM | 2.13 nM | 0.18 nM
9 | COc1ccccc1[C@H]1CCN(CCCCN2C(=O)COc3ccccc32)C1 [Example 18, (R)-4-[4-[3-(2-methoxyphenyl)-1-pyrrolidinyl]butyl]-2H-1,4-benzoxazin-3(4H)-one, Monohydrochloride] | – | – | 0.46 nM | 1.02 nM | 0.66 nM | 0.21 nM
10 | COc1ccc2sc3c(=O)n(CCCCN4CC[C@H](c5ccccc5OC)C4)c(=O)[nH]c3c2n1 [Example 11, (R)-8-methoxy-3-[4-[3-(2-methoxyphenyl)-1-pyrrolidinyl]butyl]pyrido-[2',3':4,5]thieno[3,2-d]pyrimidine-2,4(1H,3H)-dione, Dihydrochloride] | – | – | 0.67 nM | 1.79 nM | 0.12 nM | 0.11 nM
11 | O=C(NC1CCN(CCc2c[nH]c3ccccc23)CC1)c1ccccc1 [indoramin] | significant improvements in urinary flow rates and subjective symptom scores | – | – | – | – | –
12 | COc1cccc([C@H]2CCN(CCCCn3c(=O)[nH]c4c(sc5cccnc54)c3=O)C2)c1 [Example 22, (R)-3-[4-[3-(3-methoxyphenyl)-1-pyrrolidinyl]butyl]pyrido[2',3':4,5]thieno[3,2-d]pyrimidine-2,4(1H,3H)-dione, Dihydrochloride] | – | – | 5.11 nM | 18.4 nM | 11.5 nM | 1.52 nM
13 | COc1ccccc1[C@H]1CCN(CCn2c(=O)[nH]c3c(sc4ccccc43)c2=O)C1 [Example 1, (R)-3-[2-[3-(2-Methoxyphenyl)-1-pyrrolidinyl]ethyl]-[1]benzothieno[3,2-d]pyrimidine-2,4(1H,3H)-dione, Monohydrochloride] | – | – | 1.8 nM | 0.94 nM | 0.82 nM | 0.13 nM
14 | COc1ccccc1[C@H]1CCN(CCCCn2c(=O)[nH]c3c(sc4ncc(-c5ccccc5)nc43)c2=O)C1 [Example 16, (R)-8-phenyl-3-[4-[3-(2-methoxyphenyl)-1-pyrrolidinyl]butyl]pyrazino[2',3':4,5]thieno[3,2-d]pyrimidine-2,4(1H,3H)-dione, Dihydrochloride] | – | – | 1.61 nM | 11.8 nM | 0.64 nM | 0.09 nM
15 | COc1cccc([C@@H]2CCN(CCn3c(=O)[nH]c4c(sc5ccccc54)c3=O)C2)c1 [Example 26, (S)-3-[2-[3-(3-methoxyphenyl)-1-pyrrolidinyl]ethyl]-[1]benzothieno[3,2-d]pyrimidine-2,4(1H,3H)-dione, Monohydrochloride] | – | – | 6.79 nM | 10.7 nM | 3.04 nM | 1.24 nM
16 | COc1cc2nc(N3CCN(C(=O)C4COc5ccccc5O4)CC3)nc(N)c2cc1OC (stereo not drawn) [doxazosin] | significant improvements in urinary flow rates and subjective symptom scores | Clinical efficacy of α1 antagonists in BPH has been demonstrated | – | – | – | –
